Results: ChEMBL document CHEMBL3600358, “Design and synthesis of novel substituted naphthyridines as potential c-Met kinase inhibitors based on MK-2461” (Bioorg Med Chem Lett, 2015)

Key:
A549 = assay: Antiproliferative activity against human A549 cells incubated for 48 hrs by MTT assay; assay type: functional, cell-based; settings: A549, 48 h
HeLa [1] = assay: Antiproliferative activity against human HeLa cells incubated for 48 hrs by MTT assay; assay type: functional, cell-based
HeLa [2] = assay: Effect on total c-Met protein level in human HeLa cells at 1.25 to 20 uM incubated for 24 hrs by Western blot method; assay type: cell-based

Row | IC50 (A549) [µM] | IC50 (HeLa [1]) [µM] | Compound | Activity (HeLa [2])
1 | 8.9 | 7.4 | Cn1cc(-c2cnc3ccnc(NCC4CC4)c3c2)cn1 | 
2 | > 50 | > 50 | Cn1cc(-c2cnc3ccc(NS(=O)(=O)c4ccc(Cl)cc4Cl)nc3c2)cn1 | 
3 | > 50 | > 50 | Cn1cc(-c2cnc3ccc(NC(=O)c4ccc(F)cc4)nc3c2)cn1 | 
4 | 39.5 | 38.4 | Cn1cc(-c2cnc3ccc(NS(=O)(=O)c4cccs4)nc3c2)cn1 | 
5 | > 50 | 46.6 | Cn1cc(-c2cnc3ccc(NCc4ccc(F)cc4)nc3c2)cn1 | 
6 | 6.4 | 4.9 | COc1ccc(C(=O)Nc2ccc3ncc(-c4cnn(C)c4)cc3n2)cc1 | 
7 | > 50 | > 50 | CC(=O)Nc1ccc2ncc(-c3cnn(C)c3)cc2n1 | 
8 | 33.4 | 40.8 | Cn1cc(-c2cnc3ccnc(N)c3c2)cn1 | 
9 | > 50 | > 50 | Cn1cc(-c2cnc3ccc(N)nc3c2)cn1 | 
10 | > 50 | > 50 | Cn1cc(-c2cnc3ccc(NCC4CC4)nc3c2)cn1 | 
11 | 40.7 | > 50 | CCNc1nccc2ncc(-c3cnn(C)c3)cc12 | 
12 | > 50 | > 50 | Cn1cc(-c2cnc3ccc(NC(=O)C4CC4)nc3c2)cn1 | 
13 | > 50 | > 50 | COc1ccc(CNc2ccc3ncc(-c4cnn(C)c4)cc3n2)cc1 | 
14 | 45.5 | > 50 | Cc1ccc(S(=O)(=O)Nc2ccc3ncc(-c4cnn(C)c4)cc3n2)cc1 | 
15 | > 50 | > 50 | CCNc1ccc2ncc(-c3cnn(C)c3)cc2n1 | 
16 | > 50 | > 50 | Cn1cc(-c2cnc3ccc(NC(=O)c4cccnc4)nc3c2)cn1 | 
17 | > 50 | > 50 | Cn1cc(-c2cnc3ccnc(NC(=O)C4CC4)c3c2)cn1 | 

The remaining lines, values behind:

Row | Compound | IC50 (A549) [µM] | IC50 (HeLa [1]) [µM] | Activity (HeLa [2])
18 | Cn1cc(-c2cnc3ccnc(NS(=O)(=O)c4ccc(C(F)(F)F)cc4)c3c2)cn1 | > 50 | > 50 | 
19 | CC(=O)Nc1nccc2ncc(-c3cnn(C)c3)cc12 | > 50 | > 50 | 
20 | Cn1cc(-c2cnc3ccnc(NS(=O)(=O)c4c(Cl)cccc4Cl)c3c2)cn1 | > 50 | > 50 | 
21 | Cn1cc(-c2cnc3ccnc(NC(=O)c4cccnc4)c3c2)cn1 | > 50 | > 50 | 
22 | Cn1cc(-c2cnc3ccnc(NS(=O)(=O)c4cccs4)c3c2)cn1 | 9.4 | 17.4 | 
23 | Cn1cc(-c2cnc3ccc(NS(=O)(=O)c4ccc(C(F)(F)F)cc4)nc3c2)cn1 | > 50 | > 50 | 
24 | Cn1cc(-c2cnc3ccnc(NC(=O)c4ccc(F)cc4)c3c2)cn1 | > 50 | > 50 | 
25 | COc1ccc(CNc2nccc3ncc(-c4cnn(C)c4)cc23)cc1 | > 50 | 42.2 | 
26 | COc1ccc(C(=O)Nc2nccc3ncc(-c4cnn(C)c4)cc23)cc1 | > 50 | > 50 | 
27 | Cn1cc(-c2cnc3ccnc(NCc4ccc(F)cc4)c3c2)cn1 | 5.2 | 9.2 | Non-toxic
28 | Cc1ccc(S(=O)(=O)Nc2nccc3ncc(-c4cnn(C)c4)cc23)cc1 | > 50 | > 50 | 
